Data reported in patent publication US20030157704A1, “Reagents and methods for identifying and modulating expression of genes regulated by CDK inhibitors” (priority 2001, published 2003).
Values belong to the compound of their own block, whether it stands above or below them.

Legend:
NK4 promoter = test: Luciferase assay in LuNK4p21 cell line (NK4 promoter-luciferase, IPTG-inducible p21); format: cell-based, human
Description: This assay was performed as follows. Cells were plated at a density of 40,000 cells/well in 12 well plates in 1 mL of media containing penicillin/streptomycin, glutamine and 10% fetal calf serum (FCS). After attachment, cells were treated with 50 μM IPTG or left untreated for different periods of time. Luciferase activity was then measured as described in Example 8 above. An additional aliquot was removed from the cell lysate to measure protein concentration using the Bio-Rad protein assay kit (Bradford assay). Luciferase activity for each sample was normalized to protein content and expressed as luciferase activity/μg protein.
Luciferase assays were performed substantially as described in Example 9. Luciferase activity was measured after 16 hrs of incubation with or without 50 μM IPTG, followed by an additional 20 hr treatment in the presence or in the absence of 20 mM sodium salicylate, 1 mM sulindac, or 10 mM aspirin. […] NSAID concentrations were based on the pharmacologic concentrations of these agents in the serum of patients required for their anti-inflammatory properties (Yin et al., 1998, ibid.).

p21-inducible genes = test: RT-PCR of endogenous p21-inducible genes in LuNK4p21 cells; format: cell-based, human
Description: To determine whether NFκB-inhibiting NSAID inhibited not only the induction of transcription from the NK4 promoter but also RNA expression of the endogenous p21-inducible genes, LuNK4p21 cells were plated at 125,000 cells per well in 6-well plates and were either untreated or treated with 50 μM IPTG for 48 hrs (the period of time required for maximal stimulation of p21-inducible genes; Chang et al., 2000, Proc. Natl. Acad. Sci. USA 97: 4291-4296), in the presence or in the absence of sulindac, at 250 μM, 500 μM or 1 mM concentrations. After this incubation, RNA was extracted from the cells using Qiagen RNeasy Mini Kit, and relative RNA levels of several p21-inducible genes were determined by reverse transcription-PCR (RT-PCR), essentially as described by Noonan et al. (1990, Proc. Natl. Acad. Sci. USA 87: 7160-7164), except that β-actin rather than β2-microglobulin was used for cDNA normalization. The PCR cycles were as follows: for the 1st cycle, 3 min for denaturation, 2 min for annealing and 2 min for extension, and the rest of cycles, 30 sec for denaturation; 30 sec for annealing; and 1 min for extension.

CDK4 = CDK4 (UniProt P11802); test: cell-based or functional assay
CDK4, sequence (P11802 2-303 limits assumed): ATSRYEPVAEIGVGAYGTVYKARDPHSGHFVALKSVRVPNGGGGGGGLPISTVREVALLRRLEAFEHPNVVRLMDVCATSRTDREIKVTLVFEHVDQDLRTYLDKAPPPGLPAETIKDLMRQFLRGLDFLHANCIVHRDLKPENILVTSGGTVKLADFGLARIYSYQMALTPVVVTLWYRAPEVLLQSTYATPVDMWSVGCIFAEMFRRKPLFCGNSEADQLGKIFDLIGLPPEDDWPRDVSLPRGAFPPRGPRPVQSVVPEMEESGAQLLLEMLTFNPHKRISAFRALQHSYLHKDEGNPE

CDK6 = CDK6 (UniProt Q00534); test: cell-based or functional assay
CDK6, sequence (Q00534 whole entry): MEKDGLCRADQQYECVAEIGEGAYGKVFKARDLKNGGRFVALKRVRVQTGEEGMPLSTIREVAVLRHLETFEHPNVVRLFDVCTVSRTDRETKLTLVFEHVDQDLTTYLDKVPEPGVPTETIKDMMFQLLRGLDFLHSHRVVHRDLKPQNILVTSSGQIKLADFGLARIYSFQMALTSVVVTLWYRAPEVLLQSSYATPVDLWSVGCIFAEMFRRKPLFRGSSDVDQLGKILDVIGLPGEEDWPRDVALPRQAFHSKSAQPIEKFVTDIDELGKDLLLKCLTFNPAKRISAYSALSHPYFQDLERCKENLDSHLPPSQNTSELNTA

[1] = 25 μM NSAID for 20 hr after 16 hrs with 50 μM IPTG

Compound: CC(=O)Oc1ccccc1C(=O)O [aspirin]
induction of luciferase expression by IPTG (NK4 promoter; 10 mM aspirin for 20 hr after 16 hrs with 50 μM IPTG): completely or almost completely abolished

Compound: CC(C)Cc1ccc(C(C)C(=O)O)cc1 (stereo not shown) [ibuprofen]
induction of luciferase expression by IPTG (NK4 promoter; [1]): no significant difference

Compound: COc1ccc2c(c1)c(CC(=O)O)c(C)n2C(=O)c1ccc(Cl)cc1 [indomethacin]
induction of luciferase expression by IPTG (NK4 promoter; [1]): no significant difference

Compound: O=C([O-])c1ccccc1O.[Na+] [sodium salicylate]
induction of luciferase expression by IPTG (NK4 promoter; 20 mM sodium salicylate for 20 hr after 16 hrs with 50 μM IPTG): completely or almost completely abolished

Compound: CC1=C(CC(=O)O)c2cc(F)ccc2/C1=C\c1ccc([S+](C)[O-])cc1 (stereo not shown) [sulindac]
induction of luciferase expression by IPTG (NK4 promoter; 1 mM sulindac for 20 hr after 16 hrs with 50 μM IPTG): completely or almost completely abolished | effects of IPTG on APP gene RNA (p21-inducible genes; 250 and 500 μM sulindac): diminished | NK4 gene expression (RNA) (p21-inducible genes; absence of IPTG, sulindac 250 μM, 500 μM or 1 mM, 48 hrs): very little effect | gene expression of all the other tested genes (p21-inducible genes; absence of IPTG, sulindac 250 μM-1 mM): dose-dependent increase | t-TGase RNA (p21-inducible genes; compared with NK4, with and without IPTG, sulindac 250 μM-1 mM): Very similar results | p21-induced transcription of most of the tested genes (p21-inducible genes; moderate dose of sulindac (250 μM)): inhibits the ability of p21 to induce transcription | effects of IPTG on CTGF gene RNA (p21-inducible genes; only by 250 μM sulindac): diminished | effects of IPTG on Mac2-binding protein (Mac2-BP) gene RNA (p21-inducible genes; only by 250 μM sulindac): diminished | effects of IPTG on p66Shc gene RNA (p21-inducible genes; only by 250 μM sulindac): diminished | NK4 RNA levels (p21-inducible genes; presence of 50 μM IPTG, all concentrations of sulindac (250 μM, 500 μM, 1 mM), 48 hrs): dose-dependent decrease | gene expression of all the other tested genes (p21-inducible genes; presence of IPTG, highest dose of sulindac (1 mM)): did not decrease gene expression | IPTG-induced RNA levels of prosaposin (p21-inducible genes; sulindac 250 μM, 500 μM, 1 mM): None of the tested sulindac concentrations produced a significant decrease | IPTG-induced RNA levels of superoxide dismutase 2 (SOD2) (p21-inducible genes; sulindac 250 μM, 500 μM, 1 mM): None of the tested sulindac concentrations produced a significant decrease

cells arrested in G1 after 24 hrs of IPTG treatment (FACS analysis of DNA content) (CDK4): 93% | cells arrested in G1 after 24 hrs of IPTG treatment (FACS analysis of DNA content) (CDK6): 93%
Compound: p16^Ink4A (from UniProt P42771 1-156)
